Measurements from patent publication US20260131324A1, “A CONTAINER FOR IN VITRO DRUG TESTING” (National University of Singapore, priority 2022, published 2026).

Assays:
[1] = Diffusion through hydrogel container (version 2.0) in USP apparatus IV, PBS medium; format: physicochemical; settings: at 8.25 h; caffeine stock solution 4 mg/mL, 1 mL; 100 mL PBS; 34 C
Procedure: The compendial flow-through cell 504 of the USP apparatus IV 502 is an enclosed system with a heating mantle that allows a controlled medium flow from the bottom to the top of the cell 504. The ring 114 was mounted onto a cylindrical mould and the gel composition was filled into the mould. A punch was used to create interior pockets of similar size. The drug formulation 106 was then injected into the interior pocket of the receptacle 102, and the ring 114 was sealed with a rubber plug 116. The USP apparatus IV 502, as well as the various flow-through cells 504, have been described by various pharmacopoeias and related literature. For this diffusion experiment, a SOTAX CP7-35 Piston Pump 506, alone with a fraction collector 508 and the SOTAX CE7 dissolution system, was used. Media 510 was filled into the reservoir 512 with magnetic stirrers running at 150 rpm. The dissolution apparatus was operated in a closed-loop configuration with a constant flow of 8±0.4 mL/min for all experiments. […] Caffeine was quantified with a ultraviolet-visible (UV/Vis) spectrometer. Subsequently, the cumulative diffusion of caffeine was calculated by comparing the diffused amount with the initially added drug concentration. […] In the next step, new containers 100 were evaluated with Actrapid® and […]®. […]

[2] = Proof-of-concept model: diffusion through agarose hydrogel container (version 1.0) in modified flow-through cell; format: physicochemical; settings: plateau at about 7 h, PBS with Tween 80
Source text: FIG. 4A illustrates a hydrogel container 402 (left) and a modified flow-through cell 404 (right) used as a proof-of-concept model for the diffusion experiment shown in the first flow chart 300A of FIG. 3. The proof-of-concept model was designed to affirm the discriminative power of an agarose hydrogel under continuous media flow. Serving as a physicochemical barrier between drug and media, it is supposed to generate data ascertaining differences in diffusion behaviour and gel interaction of closely related drug formulations. For this, Actrapid® (regular human insulin, hexamer) and Apidra® (insulin glulisine) were chosen as model peptide formulations for the initial setup. m-Cresol, present in both formulations, was quantified as well, serving as an internal standard.
A cylindrical gel that forms both the physicochemical barrier and pocket was prepared with the help of custom-made plastic receptacles. The gel consists of 2% (w/w) agarose dissolved in PBS. […] After cooling at room temperature, the gel is formed and ready to use. […]
FIG. 4B illustrates an assay setup for the proof-of-concept model of FIG. 4A for in vitro drug testing. […] Quantification of insulin and m-cresol in the medium was then carried out by HPLC. Subsequently, the cumulative diffusion of the model drugs was calculated by comparing the diffused amount with the initially added drug concentration. […]

SMILES: Cn1c(=O)c2c(ncn2C)n(C)c1=O [caffeine]
- cumulative diffusion of caffeine [1]: around 101±3%

SMILES: Cc1cccc(O)c1 [m-cresol, m-Cresol]
- cumulative diffusion of m-cresol, maximum ([2]; m-cresol inside Apidra): 88±0.2%
- cumulative diffusion of m-cresol, plateau ([2]; m-cresol inside the Actrapid formulation): 84±1.0%
